Laboratory results from the NIST ThermoML archive (doi:10.1016/j.jct.2018.11.020).
Numbers after ± are expanded uncertainties.

Columns and labels:
[1] = 101.33 kPa, Liquid; for viscosity: Concentric cylinders viscometry; for mass density: Vibrating tube method
[2] = refractive index (Na D-line) (dimensionless); details: 101.33 kPa, Liquid, Standard Abbe refractometry

Cc1ccccc1C [1,2-dimethylbenzene]
Details | mass density, [1] [kg/m3] | refractive index, [2] | viscosity, [1] [mPa·s]
288.15 K | 883.91 ± 1 | 1.50706 ± 0.0004 | 0.869 ± 0.019
293.15 K | 879.72 ± 1 | 1.5044 ± 0.0004 | 0.8175 ± 0.018
298.15 K | 875.51 ± 1 | 1.50173 ± 0.0004 | 0.7661 ± 0.017
303.15 K | 871.3 ± 1 | 1.49906 ± 0.0004 | 0.722 ± 0.016
308.15 K | 867.07 ± 1 | 1.49644 ± 0.0004 | 0.6809 ± 0.015
313.15 K | 862.83 ± 1 | 1.49383 ± 0.0004 | 0.6437 ± 0.014
318.15 K | 858.57 ± 1 | 1.49124 ± 0.0004 | 0.608 ± 0.014
323.15 K | 854.3 ± 1 | 1.48869 ± 0.0004 | 0.5757 ± 0.013
328.15 K | 850.01 ± 1 | 1.48604 ± 0.0004 | 0.5458 ± 0.012
333.15 K | 845.71 ± 1 | 1.48345 ± 0.0004 | 0.5221 ± 0.012

Cc1cccc(C)c1 [1,3-dimethylbenzene]
Details | mass density, [1] [kg/m3] | refractive index, [2] | viscosity, [1] [mPa·s]
288.15 K | 868.56 ± 1 | 1.49868 ± 0.0004 | 0.6601 ± 0.015
293.15 K | 864.27 ± 1 | 1.49604 ± 0.0004 | 0.6322 ± 0.014
298.15 K | 859.98 ± 1 | 1.49339 ± 0.0004 | 0.5969 ± 0.013
303.15 K | 855.68 ± 1 | 1.49074 ± 0.0004 | 0.5674 ± 0.013
308.15 K | 851.36 ± 1 | 1.4881 ± 0.0004 | 0.5396 ± 0.012
313.15 K | 847.03 ± 1 | 1.48545 ± 0.0004 | 0.5112 ± 0.012
318.15 K | 842.69 ± 1 | 1.4828 ± 0.0004 | 0.4888 ± 0.011
323.15 K | 838.33 ± 1 | 1.48017 ± 0.0004 | 0.4657 ± 0.011
328.15 K | 833.95 ± 1 | 1.47757 ± 0.0004 | 0.4439 ± 0.01
333.15 K | 829.56 ± 1 | 1.47489 ± 0.0004 | 0.4273 ± 0.01

Cc1ccc(C)cc1 [1,4-dimethylbenzene]
Details | mass density, [1] [kg/m3] | refractive index, [2] | viscosity, [1] [mPa·s]
288.15 K | 865.31 ± 1 | 1.4977 ± 0.0004 | 0.6862 ± 0.015
293.15 K | 860.97 ± 1 | 1.49493 ± 0.0004 | 0.6515 ± 0.015
298.15 K | 856.63 ± 1 | 1.49221 ± 0.0004 | 0.6168 ± 0.014
303.15 K | 852.27 ± 1 | 1.48939 ± 0.0004 | 0.5848 ± 0.013
308.15 K | 847.91 ± 1 | 1.48658 ± 0.0004 | 0.5548 ± 0.013
313.15 K | 843.53 ± 1 | 1.48391 ± 0.0004 | 0.5247 ± 0.012
318.15 K | 839.14 ± 1 | 1.48126 ± 0.0004 | 0.5001 ± 0.011
323.15 K | 834.74 ± 1 | 1.47853 ± 0.0004 | 0.4753 ± 0.011
328.15 K | 830.32 ± 1 | 1.47608 ± 0.0004 | 0.4521 ± 0.01
333.15 K | 825.88 ± 1 | 1.47328 ± 0.0004 | 0.4342 ± 0.01

Cc1ccccc1 [toluene]
Details | mass density, [1] [kg/m3] | refractive index, [2] | viscosity, [1] [mPa·s]
288.15 K | 871.5 ± 1 | 1.49921 ± 0.00036 | 0.6284 ± 0.014
293.15 K | 866.84 ± 1 | 1.49631 ± 0.00036 | 0.5926 ± 0.013
298.15 K | 862.18 ± 1 | 1.49338 ± 0.00036 | 0.5698 ± 0.013
303.15 K | 857.51 ± 1 | 1.49042 ± 0.00036 | 0.541 ± 0.012
308.15 K | 852.83 ± 1 | 1.48751 ± 0.00036 | 0.514 ± 0.011
313.15 K | 848.15 ± 1 | 1.48461 ± 0.00036 | 0.4854 ± 0.011
318.15 K | 843.44 ± 1 | 1.48171 ± 0.00036 | 0.4646 ± 0.01
323.15 K | 838.73 ± 1 | 1.47889 ± 0.00036 | 0.4421 ± 0.01
328.15 K | 834 ± 1 | 1.47596 ± 0.00036 | 0.4209 ± 0.0097
333.15 K | 829.25 ± 1 | 1.47305 ± 0.00036 | 0.4035 ± 0.0094
